Experimental data from publication PMC1950704 (Respiratory Research, 2007).
Entries after “also recorded” stand apart in the source; their conditions may differ. Like-named read-outs stand apart in the source and are kept apart here.

Assays:
[1] = Stability in fresh human lung tissue in vitro, with and without esterase inhibitor dichlorvos; assay type: in vitro ADME; conditions: 37°C
Experimental: Incubations were performed in the presence and absence of dichlorvos (1 mg/mL). Over 24 hours, samples of 1.0 mL tissue-free supernatant were taken and immediately stored at -20°C until analysis. The incubation medium was replenished by buffer which was pre-temperated to 37°C. In case of incubations with dichlorvos the medium used for replenishment contained the esterase inhibitor.
(§1) Samples of 1.0 mL (tissue desorption/stability) or 2.0 mL (tissue adsorption) were mixed with 0.1 mL internal standard solution and extracted twice with 3 mL diethylether for 30 min, using a roller mixer, followed by centrifugation (20°C) for 5 min. The organic phase was separated and evaporated to dryness under a gentle stream of nitrogen at 25°C. The resulting residue was reconstituted in 0.2 mL mobile phase. […] Linearity was given from 10–500 ng/mL glucocorticoid, coefficients of correlation of the calibration curves were at least 0.99.
The HPLC system was a Waters HPLC (Milford, MA) consisting of a 1525 binary pump, an 717plus autosampler and 2487 dual wavelength absorbance detector set at the detection wavelength of 254 nm. Data collection and integration were accomplished using Breeze™ software version 3.2. Analysis was performed on a Symmetry C18 column (150 × 4.6 mm I.D., 5 μm particle size, Waters, MA). […] The lower limit of quantitation was 10 ng/mL for all glucocorticoids except ciclesonide (20 ng/mL).

[2] = biological target: T1, human lung glucocorticoid receptor (Homo sapiens, UniProt P04150); test: Kinetic receptor binding experiments (association and dissociation kinetics) in human lung cytosol; set-up: we isolated human lung glucocorticoid receptors from human lung tissue; from tissue; host or cells: human lung tissue cytosol (105,000 x g supernatant); conditions: 20°C, mean and mean deviation of the mean, 3-7 experiments
T1 sequence (P04150 1-777): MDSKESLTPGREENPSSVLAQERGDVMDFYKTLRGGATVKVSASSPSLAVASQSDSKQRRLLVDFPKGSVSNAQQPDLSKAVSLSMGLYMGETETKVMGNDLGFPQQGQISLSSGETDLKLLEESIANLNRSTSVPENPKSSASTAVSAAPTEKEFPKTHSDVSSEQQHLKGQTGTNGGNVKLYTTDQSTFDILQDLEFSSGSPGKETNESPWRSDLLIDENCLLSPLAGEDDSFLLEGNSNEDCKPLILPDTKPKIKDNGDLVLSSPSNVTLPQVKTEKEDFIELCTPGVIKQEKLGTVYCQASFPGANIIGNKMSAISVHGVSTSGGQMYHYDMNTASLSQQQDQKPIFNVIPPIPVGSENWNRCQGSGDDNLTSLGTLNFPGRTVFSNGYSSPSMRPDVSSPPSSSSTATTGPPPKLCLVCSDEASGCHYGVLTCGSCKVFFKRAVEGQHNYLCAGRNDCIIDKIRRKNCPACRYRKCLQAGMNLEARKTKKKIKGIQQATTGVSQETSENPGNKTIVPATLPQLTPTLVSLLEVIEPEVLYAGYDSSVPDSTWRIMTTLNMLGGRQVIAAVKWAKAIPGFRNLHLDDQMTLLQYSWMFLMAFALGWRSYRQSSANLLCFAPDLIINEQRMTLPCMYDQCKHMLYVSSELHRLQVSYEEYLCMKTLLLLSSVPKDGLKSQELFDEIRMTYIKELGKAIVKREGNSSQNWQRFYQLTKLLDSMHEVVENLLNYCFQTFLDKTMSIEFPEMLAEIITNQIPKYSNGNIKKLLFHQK
Experimental: Human lung tissue was deep frozen immediately after resection and stored in liquid nitrogen. Frozen tissue was pulverized and homogenized in three aliquots buffer solution A with an Ultra Turrax mixer (Janke and Kunkel, Staufen, Germany) in an ice bath. […] The cytosol was stored in aliquots at -70°C.
The receptor binding experiments were performed according to the procedure described earlier [1] based on [7-9].
The assay for total binding (Bt in [mol/L]) was carried out accordingly, but the unlabelled glucocorticoid was replaced by buffer solution G. To determine the total [^3H]-glucocorticoid concentration (T), 20 μL of the mixture were used for scintillation counting. […]
The Zt-values were plotted against time t and a linear regression was performed. The slope of the straight line (kAss = k1) and the coefficient of correlation r were calculated based on a minimum of four data points. […]
The Bs,t-values were plotted semi-logarithmical against time t and a linear regression was performed. The slope of the straight line (kDiss = k-1) and the coefficient of correlation r were calculated based on a minimum of six data points.
Equilibrium dissociation constant (KD) was calculated for each glucocorticoid based on association and dissociation rate constants:

[3] = Control experiment for non-specific adsorption to glass incubation vials (buffer without tissue); assay type: physicochemical; conditions: 480 min at 37°C, Krebs-Ringer-HEPES buffer; for non-specific binding to glass incubation vials: no tissue
Experimental: Lung tissue was washed in Krebs-Ringer-HEPES buffer (pH 7.4) and sliced into pieces of 1 mm^3. For each binding experiment approximately 0.5 g of lung tissue was used. Adsorption of glucocorticoids (0.3 μg/mL) to human lung tissue was determined as described earlier. Briefly, lung tissue pieces were suspended under gentle shaking for 1 h at 37°C in 20 ml Krebs-Ringer-HEPES buffer containing 0.3 μg/ml of the glucocorticoid. 2.0 mL samples were taken and stored at -20°C until analysis. The volume withdrawn was replaced with fresh buffer of 37°C. Only glass lab ware was used for these experiments to avoid any non-specific binding effects of the highly lipophilic compounds to plastic material. […]
as §1
(§2) The HPLC system was a Waters HPLC (Milford, MA) consisting of a 1525 binary pump, an 717plus autosampler and 2487 dual wavelength absorbance detector set at the detection wavelength of 254 nm. Data collection and integration were accomplished using Breeze™ software version 3.2. Analysis was performed on a Symmetry C18 column (150 × 4.6 mm I.D., 5 μm particle size, Waters, MA). Typically, 20 μL of sample were injected and separated at a flow rate of 1 mL/min. Gradient elution was performed using water (containing 0.2 % (v/v) acetic acid) and ACN, starting at 60:40 (v/v) water/ACN increasing linearly to 29:71 (v/v) water/ACN by 30 min. The assay was accurate and reproducible. The lower limit of quantitation was 10 ng/mL for all glucocorticoids except ciclesonide (20 ng/mL).

[4] = Adsorption of glucocorticoids to human lung tissue; assay type: in vitro ADME; conditions: 37°C; for tissue binding (concentration in human lung tissue) after adsorption: 60 min incubation, 0.3 μg/mL glucocorticoid in buffer, before incubation in plasma
Experimental: Lung tissue was washed in Krebs-Ringer-HEPES buffer (pH 7.4) and sliced into pieces of 1 mm^3. For each binding experiment approximately 0.5 g of lung tissue was used. Adsorption of glucocorticoids (0.3 μg/mL) to human lung tissue was determined as described earlier. Briefly, lung tissue pieces were suspended under gentle shaking for 1 h at 37°C in 20 ml Krebs-Ringer-HEPES buffer containing 0.3 μg/ml of the glucocorticoid. 2.0 mL samples were taken and stored at -20°C until analysis. The volume withdrawn was replaced with fresh buffer of 37°C. Only glass lab ware was used for these experiments to avoid any non-specific binding effects of the highly lipophilic compounds to plastic material. For control, blank samples with glucocorticoid-containing buffer, but no tissue, were incubated under the same experimental conditions (1 h at 37°C, in Krebs-Ringer-HEPES buffer) and analyzed for non-specific adsorption of the glucocorticoids to the glass tubes.
as §1, §2

[5] = Desorption of glucocorticoids from human lung tissue into human plasma; assay type: in vitro ADME; conditions: for concentration remaining in human lung tissue after desorption: after 60 min equilibration with human plasma at 37°C; for retention / tissue binding in human lung tissue (in words): in vitro
Experimental: Desorption of glucocorticoids to human lung tissue was determined as described earlier. Briefly, lung tissue (1.0 g) was saturated with glucocorticoids for 1 h at 37°C by shaking in 40 mL Krebs-Ringer-HEPES buffer containing 0.3 μg/mL of the respective glucocorticoid. After incubation tissue was washed with 2 mL buffer and transferred into 10.0 mL human plasma (37°C). Again, only glass lab ware was used for these experiments to exclude any non-specific binding effects of the highly lipophilic compounds to plastic material. Samples of 1.0 mL were taken at defined time points. The volume was replaced with fresh plasma at 37°C. Samples were stored at -20°C until further analysis.
as §1, §2

[6] = Binding to human nasal tissue; assay type: in vitro ADME; conditions: single experiment, tissue pooled from 3 donors; data not shown
[7] = biological target: T1, human lung glucocorticoid receptor; conditions: from previous experiments of the authors; ref [3]; cited from earlier work
[8] = test system: glucocorticoid receptor (rat receptor data); set-up: method as in PMID 14718604; conditions: reference dexamethasone = 100, ref [16]; cited from earlier work

| SMILES | tissue binding (concentration in human lung tissue) after adsorption [4] | concentration remaining in human lung tissue after desorption [5] | retention / tissue binding in human lung tissue (in words) [5] | non-specific binding to glass incubation vials [3] | other results |
| --- | --- | --- | --- | --- | --- |
| CCC(=O)OCC(=O)[C@@]1(OC(=O)CC)[C@@H](C)C[C@H]2[C@@H]3CCC4=CC(=O)C=C[C@]4(C)[C@@]3(Cl)[C@@H](O)C[C@@]21C [BDP, beclomethasone-17, 21-dipropionate] |  |  |  |  | concentration in the supernatant in the absence of dichlorvos (control of enzymatic integrity) ([1]; human lung tissue, absence of dichlorvos, data not shown): rapidly decreased |
| C[C@@H]1C[C@H]2[C@@H]3CCC4=CC(=O)C=C[C@]4(C)[C@@]3(F)[C@@H](O)C[C@]2(C)[C@@]1(O)C(=O)CO [Dexa, dexamethasone] |  |  |  |  | association rate constant k1 ([2]; [3H]-glucocorticoid): 10.53 ± 0.35 × 10^5 (L/[mol/min]); dissociation rate constant k-1 [2]: 94.67 ± 5.43 × 10^-4 [1/min] |
| C[C@]12C=CC(=O)C=C1CC[C@@H]1[C@@H]2[C@@H](O)C[C@@]2(C)[C@H]1C[C@H]1O[C@@H](C3CCCCC3)O[C@]12C(=O)CO [des-Cicle, desisobutyryl-ciclesonide] |  |  |  |  | RRA (relative receptor affinity) [8]: 1212 |

Second part, led by results:

| tissue binding (concentration in human lung tissue) after adsorption [4] | concentration remaining in human lung tissue after desorption [5] | retention / tissue binding in human lung tissue (in words) [5] | SMILES | non-specific binding to glass incubation vials [3] | other results |
| --- | --- | --- | --- | --- | --- |
| 4.18 ± 0.16 ng/mg | 1.21 ± 0.23 ng/mg | pronounced retention | C[C@@H]1C[C@H]2[C@@H]3C[C@H](F)C4=CC(=O)C=C[C@]4(C)[C@@]3(F)[C@@H](O)C[C@]2(C)[C@@]1(OC(=O)c1ccco1)C(=O)SCF [FF, fluticasone furoate] | no non-specific binding; also recorded: No adsorption | stability in human lung tissue (in words) ([1]; 0.3 μg/mL, 24 hours, presence and absence of dichlorvos, HPLC of supernatant): no indication of instability or chemical modification; also recorded: non-specific esterase-catalyzed hydrolysis of FF did not occur; also recorded: no degradation or metabolism; time to complete adsorption to human lung tissue ([4]; in vitro, data not shown): about 20 min; binding to human nasal tissue compared with FP [6]: greater binding |
| 3.39 ± 0.06 ng/mg | 1.55 ± 0.13 ng/mg | pronounced retention | CCC(=O)O[C@]1(C(=O)SCF)[C@H](C)C[C@H]2[C@@H]3C[C@H](F)C4=CC(=O)C=C[C@]4(C)[C@@]3(F)[C@@H](O)C[C@@]21C [FP, fluticasone propionate] | no non-specific binding; also recorded: No adsorption | association rate constant k1 [7]: 21.17 ± 0.56 × 10^5 (L/[mol/min]); dissociation rate constant k-1 [7]: 10.73 ± 0.65 × 10^-4 [1/min] |
| 3.65 ± 0.15 ng/mg | 0.57 ± 0.15 ng/mg | Lowest tissue binding | C[C@@H]1C[C@H]2[C@@H]3CCC4=CC(=O)C=C[C@]4(C)[C@@]3(Cl)[C@@H](O)C[C@]2(C)[C@@]1(OC(=O)c1ccco1)C(=O)CCl [MF, mometasone furoate] | did not display non-specific binding to glass | chemical stability in buffer ([3]; degradation product 9,11-epoxy MF): chemical instability |
